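Dose response: 5 concentrations. Exposure: 48 h. Format: 96-well plates. Endpoint: linear interpolation; highest concentration if not reached. GI50 = concentration required for 50% inhibition of growth.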 Active and inactive are the calls of the source. No stated cut-off is given here; in the data, active = GI50 up to about 1.1 µM and inactive = higher.
How the values were obtained:
Experiment in all cases: inhibition of tumour cell growth, NCI panel, 48 h
COLO 205 = tested on: COLO 205
SNB-19 = tested on: SNB-19
SF-539 = tested on: SF-539
UACC-257 = tested on: UACC-257
SK-MEL-5 = tested on: SK-MEL-5
OVCAR-4 = tested on: OVCAR-4
MOLT-4 = tested on: MOLT-4
SK-OV-3 = tested on: SK-OV-3
UACC-62 = tested on: UACC-62
K562 = tested on: K562
A498 = tested on: A498
SW-620 = tested on: SW-620
HL-60 = tested on: HL-60
HCC 2998 = tested on: HCC 2998
SF-295 = tested on: SF-295
A549 = tested on: A549
HOP-92 = tested on: HOP-92
Malme-3M = tested on: Malme-3M
LOX IMVI = tested on: LOX IMVI
RPMI-8226 = tested on: RPMI-8226

Compound	GI50 (COLO 205)	GI50 (SNB-19)	GI50 (SF-539)	GI50 (UACC-257)	GI50 (SK-MEL-5)	GI50 (OVCAR-4)	GI50 (MOLT-4)	GI50 (SK-OV-3)	GI50 (UACC-62)	GI50 (K562)	GI50 (A498)	GI50 (SW-620)	GI50 (HL-60)	GI50 (HCC 2998)	GI50 (SF-295)	GI50 (A549)	GI50 (HOP-92)	GI50 (Malme-3M)	GI50 (LOX IMVI)	GI50 (RPMI-8226)
COC(=O)c1ccc2c(c1)S/C(=C/c1ccc3ccc4cccc5ccc1c3c45)S2	> 100 µM (inactive)	50.6 µM (inactive)	> 100 µM (inactive)	> 100 µM (inactive)	> 100 µM (inactive)	41.4 µM (inactive)	> 100 µM (inactive)	> 100 µM (inactive)	22.9 µM (inactive)	34.3 µM (inactive)	31.6 µM (inactive)	27.6 µM (inactive)	20.7 µM (inactive)	89.3 µM (inactive)	40.8 µM (inactive)	42 µM (inactive)	43.5 µM (inactive)	32.7 µM (inactive)	> 100 µM (inactive)	38.3 µM (inactive)
CCOC(=O)/C=C/C1=C(Br)[C@@]2(C)CC[C@@H]3c4ccc(O)cc4CC[C@H]3[C@@H]2C1	17.8 µM (inactive)	16.6 µM (inactive)	17 µM (inactive)	13.9 µM (inactive)	13.6 µM (inactive)	14.5 µM (inactive)	12.5 µM (inactive)	15.4 µM (inactive)	6.85 µM (inactive)	9.98 µM (inactive)	18.1 µM (inactive)	13.7 µM (inactive)	17.9 µM (inactive)	14.8 µM (inactive)	15.8 µM (inactive)	16.9 µM (inactive)	11.6 µM (inactive)	12 µM (inactive)	7.08 µM (inactive)	2.17 µM (inactive)
CCOC(=O)N1CCN(Cc2cc(=O)n3ccc(C)cc3n2)CC1	> 100 µM (inactive)	> 100 µM (inactive)	> 100 µM (inactive)	> 100 µM (inactive)	> 100 µM (inactive)	> 100 µM (inactive)	> 100 µM (inactive)	> 100 µM (inactive)	> 100 µM (inactive)	> 100 µM (inactive)	> 100 µM (inactive)	> 100 µM (inactive)	> 100 µM (inactive)	> 100 µM (inactive)	> 100 µM (inactive)	> 100 µM (inactive)	> 100 µM (inactive)	> 100 µM (inactive)	> 100 µM (inactive)	> 100 µM (inactive)
CSc1nc(=O)c(C#N)c(-c2ccccc2)n1C1OC(COC(C)=O)C(OC(C)=O)C(OC(C)=O)C1OC(C)=O (stereo not given)	> 100 µM (inactive)	> 100 µM (inactive)	> 100 µM (inactive)	> 100 µM (inactive)	81.7 µM (inactive)	> 100 µM (inactive)	> 100 µM (inactive)	> 100 µM (inactive)	> 100 µM (inactive)	> 100 µM (inactive)	> 100 µM (inactive)	> 100 µM (inactive)	> 100 µM (inactive)	> 100 µM (inactive)	> 100 µM (inactive)	69.3 µM (inactive)	46.9 µM (inactive)	69.3 µM (inactive)	98.4 µM (inactive)	> 100 µM (inactive)
Cc1cc(-c2ccccc2)nc(Nc2nc3ccccc3o2)n1	> 100 µM (inactive)	> 100 µM (inactive)	> 100 µM (inactive)	> 100 µM (inactive)	> 100 µM (inactive)	> 100 µM (inactive)	> 100 µM (inactive)	> 100 µM (inactive)	> 100 µM (inactive)	> 100 µM (inactive)	> 100 µM (inactive)	> 100 µM (inactive)	> 100 µM (inactive)	> 100 µM (inactive)	> 100 µM (inactive)	> 100 µM (inactive)	89.3 µM (inactive)	> 100 µM (inactive)	> 100 µM (inactive)	> 100 µM (inactive)
Cn1c(=O)c2ccc(-c3ccc(Br)cc3)nc2n(C)c1=O	> 100 µM (inactive)	> 100 µM (inactive)	> 100 µM (inactive)	> 100 µM (inactive)	> 100 µM (inactive)	> 100 µM (inactive)	> 100 µM (inactive)	> 100 µM (inactive)	> 100 µM (inactive)	> 100 µM (inactive)	> 100 µM (inactive)	> 100 µM (inactive)	> 100 µM (inactive)	> 100 µM (inactive)	> 100 µM (inactive)	> 100 µM (inactive)	> 100 µM (inactive)	> 100 µM (inactive)	> 100 µM (inactive)	> 100 µM (inactive)
COc1cc([C@@H]2c3cc4c(cc3[C@@H](NCc3ccccc3F)C3COC(=O)[C@@H]32)OCO4)cc(OC)c1O (stereo not given in full)	17.7 µM (inactive)	5.36 µM (inactive)	1.47 µM (inactive)	3.1 µM (inactive)	0.828 µM (active)	16.6 µM (inactive)	0.425 µM (active)	2.58 µM (inactive)	0.463 µM (active)	1.47 µM (inactive)	5 µM (inactive)	0.851 µM (active)	1.18 µM (inactive)	11.8 µM (inactive)	1.43 µM (inactive)	0.933 µM (active)	4.04 µM (inactive)	5.94 µM (inactive)	3.07 µM (inactive)	1.93 µM (inactive)
C[C@H](CCC(=O)NCCS(=O)(=O)O)[C@H]1CC[C@H]2[C@@H]3[C@H](O)C[C@@H]4C[C@H](O)CC[C@]4(C)[C@H]3CC[C@]12C	> 100 µM (inactive)	> 100 µM (inactive)	> 100 µM (inactive)	> 100 µM (inactive)	> 100 µM (inactive)	> 100 µM (inactive)	> 100 µM (inactive)	> 100 µM (inactive)	> 100 µM (inactive)	> 100 µM (inactive)	> 100 µM (inactive)	> 100 µM (inactive)	> 100 µM (inactive)	> 100 µM (inactive)	> 100 µM (inactive)	> 100 µM (inactive)	> 100 µM (inactive)	> 100 µM (inactive)	> 100 µM (inactive)	> 100 µM (inactive)
CCN(CC)CCNc1ccc2nnn3c4ccc([N+](=O)[O-])cc4c(=O)c1c23	4.85 µM (inactive)	6.43 µM (inactive)	3.35 µM (inactive)	10 µM (inactive)	3.62 µM (inactive)	9.18 µM (inactive)	2.13 µM (inactive)	> 37.6 µM (inactive)	> 36.4 µM (inactive)	6.7 µM (inactive)	6.3 µM (inactive)	3 µM (inactive)	6.52 µM (inactive)	25.8 µM (inactive)	5.82 µM (inactive)	4.47 µM (inactive)	11.3 µM (inactive)	9.12 µM (inactive)	4.58 µM (inactive)	6.15 µM (inactive)
